Measurements reported in patent US8530406B2, “HMG-CoA reductase derived peptide and cosmetic or pharmaceutical composition containing same” (ISP Investments Inc., priority 2008, dated 2013).
No end group written: not given here.

How the values were obtained:
Assay type in all cases: cell-based
[1] = test system: HMG-CoA reductase; assay: Expression of HMG-CoA reductase in skin biopsies (immunolabelling); details: 0.5 ppm peptide applied topically, human skin samples in culture, 24 hours or 48 hours
Protocol: The goal of this study is to determine the influence of peptide SEQ ID No. 5 on the expression of HMG-CoA reductase.
Samples of human skin are placed in culture at the air/liquid interface. A 1% stock solution at 50 ppm of peptide SEQ ID No. 5 is applied topically and then the samples are incubated for 24 hours or 48 hours.
These skin samples are then fixed with formaldehyde and then enclosed in paraffin. Sections of 2 to 3 μm are then made Immunolabelling is carried out after unmasking the specific sites by microwave treatment and then incubation in trypsin Immunolabelling is carried out by using a polyclonal rabbit antibody specific for HMG-CoA reductase (Millipore, Upstate), and then a secondary antibody, coupled with a fluorescent dye. The skin sections are then examined by epifluorescence microscope (Nikon Eclipse E600 microscope).

[2] = test system: normal human keratinocytes; assay: Differentiation study of human keratinocytes (pankeratin immunofluorescence); details: 0.5 ppm peptide, 48 hours, epifluorescence
Protocol: The goal of this study is to determine the influence of peptide SEQ ID No. 5 on epidermal differentiation.
Normal human keratinocytes in culture are treated with a 1% stock solution at 50 ppm of peptide SEQ ID No. 4 for 48 hours (the medium in the presence of the active ingredient is changed every 24 hours). The cells are then washed and fixed with cold methanol for 4 minutes at 4° C.

[3] = test system: normal human keratinocytes; assay: Ultrastructural study (transmission electron microscopy) of lamellar bodies in human keratinocytes; details: 0.5 ppm peptide
Protocol: The goal of this study is to study in an ultrastructural manner, in transmission electron microscopy, keratinocytes treated by peptide SEQ ID No. 5 at 0.5 ppm.
Normal human keratinocytes in culture are treated with a 1% stock solution at 50 ppm of peptide SEQ ID No. 5 for 48 hours (the medium in the presence of the active ingredient is changed every 24 hours). The cells are washed in PBS, and then are fixed by Karnosky hypertonic fixation (4% paraformaldehyde, 5% glutaraldehyde in a 0.08M phosphate buffer) 1 hour at ambient temperature and then 24 hours at 4° C. The cells are detached from the support by scraping and centrifuged 5 minutes at 1000 rpm. The supernatant is eliminated and a 1M sodium cacodylate buffer is deposited on the residue. The cells are mixed with 2% agar and then postfixed by osmium tetraoxide for 1 hour. The specimens are then dehydrated by successive passages in a series of alcohol (from 50 to 100%). The cells are then coated in a resin. The polymerization is carried out for approximately 12 hours at 60° C. Semi-thin sections of 0.5 μm are made with an ultramicrotome. The sections are deposited on a heat bonded slide and then colored with toluidine blue. The slides are then dehydrated again and mounted in a suitable medium. After having chosen the optimal study zone, the block is recut to the desired size and ultrathin sections are then made, only sections with a silver-grey color and a suitable size are mounted on the electron microscopy grid labeled with both uranyl acetate and lead citrate, and are examined by transmission electron microscope at 60 or 80 KV.

[4] = test system: HMG-CoA reductase; assay: Expression of HMG-CoA reductase in normal human keratinocytes (immunofluorescence); details: 0.5 ppm peptide, 48 hours
Protocol: The goal of this study is to determine the influence of peptide SEQ ID No. 4 on the expression of HMG-CoA reductase in normal human keratinocytes.
Normal human dermal keratinocytes in culture are treated with a 1% stock solution at 50 ppm of peptide SEQ ID No. 4 for 48 hours (the medium in the presence of the active ingredient is changed every 24 hours). The cells are then washed and fixed in cold methanol for 4 minutes at 4° C. The cells are incubated in the presence of a polyclonal rabbit antibody specific for HMG-CoA reductase (Millipore, Upstate), and then a secondary antibody coupled with a fluorescent dye. The cells are then examined by epifluorescence microscope (Nikon Eclipse E600 microscope).

[5] = test system: normal human dermal fibroblasts; assay: Ultrastructural study of caveolae in human fibroblasts; details: 0.5 ppm peptide, 48 hours
Protocol: The goal of this study is to study at the ultrastructural level the caveolae in human dermal fibroblasts.
Normal human dermal fibroblasts in culture are treated with a 1% stock solution at 50 ppm of peptide SEQ ID No. 4 for 48 hours (the medium in the presence of the active ingredient is changed every 24 hours).

[6] = 48 hours, transmission electron microscopy

Row | HMG-CoA reductase fluorescence in the upper layers of the epidermis versus untreated control [1] | HMG-CoA reductase cytoplasmic fluorescence [4] | Substance | expression of pankeratins [2] | Golgi complex development versus control cells [3, 6] | production of lamellar bodies (Odland bodies) [3, 6] | lipid synthesis ([3]; inferred from ultrastructure) | caveolae versus untreated control cells [5]
1 | stronger fluorescence |  | Ala-Gly-Glu-Leu-Ser-NH2 (AGELS-NH2) [SEQ ID No. 5] | increases the expression of pankeratins | substantially more developed | excess production of lamellar bodies | increase in lipid synthesis | 
2 |  | more intense cytoplasmic fluorescence | Ala-Gly-Glu-Leu-Ser (AGELS) [SEQ ID No. 4] |  |  |  |  | significant increase in caveolae
